Assays:
[1] = test system: L6 cells; assay: Glucose uptake test by L6 cells; assay type: cell-based; conditions: Rattus norvegicus, 1 hour, 2-deoxy-[3H]-glucose uptake, control (MEM solvent alone) = 100%, read-out: Ratio activity (%); for activity at 10 µg/mL: treatment concentration 10 μg/ml; for activity at 100 µg/mL: treatment concentration 100 μg/ml
Protocol: Glucose Uptake Test by L6 Cells
Each of compounds under test was applied to L6 cells (rat cells originally derived from skeletal muscles) by the following method to measure the stimulating effect on glucose uptake. Namely, L6 cells were suspended in α-minimum essential medium (hereinafter referred to simply as MEM) containing 10% fetal bovine serum (hereinafter referred to simply as FBS), and inoculated into a 96-well plastic plate in an amount of 5×10^4 cells/well and cultivated in an incubator (5% carbon dioxide gas, 37° C.) until the cells grew all over the well. Then, the culture medium was switched to MEM solution containing 2% BS, followed by cultivation further for from 7 to 10 ays (the culture medium was exchanged every three days) to differentiate the cells into skeletal muscle cells. Then, the culture medium was replaced with MEM solution without FBS, followed by cultivation for three hours, and then the compound under test prepared to a treatment concentration (diluted with MEM solution without FBS) was reacted with the skeletal muscle cells at 37° C. for 1 hour. The cells were washed with Krebs-Henseleit-Ringer buffer solution (hereinafter referred to simply as KHR buffer solution), and 2-deoxy-[^3H]-glucose was added to the cells in the KHR buffer solution, followed by treatment at 37° C. for 10 minutes. The treatment solution was removed, the cells were washed with the KHR buffer solution, then the cells were dissolved in a 1N sodium hydroxide solution in an appropriate amount, and the [^3H] radio activity was measured by means of a liquid scintillation counter (cpm) The percentage of the glucose uptake was represented by the percentage of radio activity when the compound under test was applied, taking the radio activity of the control (the MEM solvent alone was applied) as 100%. Each of the compounds as identified in Table 27 was used for treatment at a concentration of each of 10 μg/ml and 100 μg/ml to examine the stimulating effect on glucose uptake.

[2] = test system: KK-Ay/Ta mice; assay: Test for hypoglycemic effect in KK-Ay/Ta mice; assay type: in vivo; conditions: 50 mg/kg single oral dose, percentage to level before administration, significant vs vehicle control (P≦0.05)
Protocol: Using KK-Ay/Ta mice (purchased from CLEA Japan, Inc.) as spontaneous diabetic type II, the hypoglycemic effect of each of compounds under test was confirmed by the following method.
Male KK-Ay/Ta mice sufficiently preliminarily bred and acclimatized were classified into groups, each consisting of six mice, and each of the compounds under test was administered. Each of the compounds under test as suspended in 0.5% carboxymethyl cellulose (manufactured by Nacalai Tesque), and each compound was orally administered singly in a dose of 50 mg/kg (10 ml/kg) by means of an oral conductor. At the same time, as a group of vehicle control, 0.5% carboxymethyl cellulose was administered in the same volume (10 ml/kg) as for the group of administration of compound under test.
Collection of blood was carried out by the following method before the administration of each of the compounds under test or the vehicle, and at the time as identified in Table 28 after the administration. The tail vein of each mouse was shallowly cut by the edge of a razor to cause bleeding in an amount of blood of from 10 to 20 μL, and the blood was collected by a micropipet. The collected blood samples were immediately mixed with a heparin solution (20 U/ml) (manufactured by Mochida Yakuhin) in the same amount as the respective collected blood samples, and subjected to centrifugation at 4° C. for 5 minutes (10,000 rpm) by means of a cooling centrifugal machine. The plasma after the centrifugation was obtained as a sample for blood glucose level measurement.
The blood glucose level was measured by means of glucose oxidase method, and measured by using a commercially available assay kit (Glucose CII TEST WAKO, manufactured by Wako Pure Chemical Industries, Ltd.). Measurement was carried out on the day after the collection of blood, and the obtained plasma was stored at −20° C. before the measurement.
The blood glucose level at the time of collection of blood was calculated as the percentage to the blood glucose level before administration of the compound under test, and the hypoglycemic effect of the compound under test was evaluated by comparison with the change of the blood glucose level (percentage) of the group of vehicle control at the time of collection of blood. The evaluation results of the hypoglycemic effect are considered to have a significant difference compared with the vehicle control by means of Wilcoxon's rank sum test (P≦0.05)

| melting point [°C] | SMILES | activity at 10 µg/mL [1] [%] | activity at 100 µg/mL [1] [%] | Rate of change of blood glucose level ([2]; after 3 hours) [%] | Rate of change of blood glucose level ([2]; after 6 hours) [%] |
| --- | --- | --- | --- | --- | --- |
| 153 to 154 | CSc1nc2ccnn2c(NCc2ccncc2)c1C#N [Compound No. 3, 7-(4-pyridylmethyl)amino-5-methylthiopyrazolo[1,5-a]pyrimidine-6-carbonitrile] | > 115 | > 115 | 78 | – |
| 157 to 158 | CSc1nc2ccnn2c(NCC2OCCO2)c1C#N [compound 8] | – | > 115 | – | 68 |
| 159 | CSc1nc2ccnn2c(NCc2ccc(C)cc2)c1C#N [compound 50] | > 115 | > 115 | 74 | – |
| 201 to 202 | CSc1nc2ccnn2c(Nc2ccccc2Cl)c1C#N [compound 163] | > 115 | – | – | – |
| 201 to 202 | CSc1nc2ccnn2c(Nc2ccc(C)cc2)c1C#N [compound 164] | > 115 | – | – | – |
| 280 to 281 | CSc1nc2ccnn2c(Nc2ccc(C#N)cc2)c1C#N [compound 168] | > 115 | > 115 | – | – |
| 177 to 178 | CSc1nc2ccnn2c(NOCc2ccccc2)c1C#N [compound 172] | > 115 | > 115 | – | – |
| 129 to 130 | C=CCONc1c(C#N)c(SC)nc2ccnn12 [compound 174] | – | > 115 | – | – |
| 175 to 176 | CSc1nc2ccnn2c(Nc2cc(C)ns2)c1C#N [compound 177] | – | > 115 | – | – |
| 214 to 215 | CSc1nc2ccnn2c(Nc2cccnc2)c1C#N [compound 178] | > 115 | > 115 | – | – |
| 235 to 238 | CSc1nc2cc(C)nn2c(Nc2cccc(C#N)c2)c1C#N [compound 186] | > 115 | > 115 | 80 | – |
| 155 to 156 | CSc1nc2cc(C)nn2c(NOCc2ccccc2)c1C#N [compound 190] | – | > 115 | – | – |
| 174 to 176 | CSc1nc2cc(C)nn2c(Nc2cccc(C)c2)c1C#N [compound 191] | > 115 | – | – | – |
| > 270 | CSc1nc2ccnn2c(Nc2ccc([N+](=O)[O-])cc2)c1C#N [compound 200] | > 115 | > 115 | 79 | – |
| 192 to 194 | CSc1nc2ccnn2c(Nc2ccccc2C)c1C#N [compound 203] | > 115 | – | – | – |
| 214 to 218 | CSc1nc2ccnn2c(NO)c1C#N [compound 205] | > 115 | – | – | – |
| 138 to 139 | CSc1nc2ccnn2c(NCCc2ccccn2)c1C#N [compound 206] | > 115 | – | – | – |
| 96 to 97 | CSc1nc2ccnn2c(NCCC2OCCO2)c1C#N [compound 210] | > 115 | > 115 | – | – |
| 158 to 159 | CSc1nc2ccnn2c(Nc2ccc3c(c2)OCO3)c1C#N [compound 211] | > 115 | > 115 | – | – |
| 184 to 185 | CSc1nc2ccnn2c(NCCc2ccncc2)c1C#N [compound 215] | > 115 | – | – | – |
| 180 to 182 | CSc1nc2ccnn2c(Nc2cccc([N+](=O)[O-])c2)c1C#N [compound 218] | > 115 | > 115 | – | – |
| 123 | CCOC(=O)c1c(SC)nc2ccnn2c1NCc1ccncc1 [compound 221] | > 115 | > 115 | – | – |
| 114 to 115 | CCOC(=O)c1c(SC)nc2ccnn2c1NCc1ccccc1 [compound 222] | > 115 | – | – | – |
| 156 to 157 | CCOC(=O)c1c(SC)nc2ccnn2c1Nc1cccc(C#N)c1 [compound 223] | > 115 | > 115 | – | – |
| 178 | CCOC(=O)c1c(SC)nc2ccnn2c1Nc1ccc(C#N)cc1 [compound 224] | > 115 | – | – | – |
| 166 to 168 | CCOC(=O)c1c(SC)nc2ccnn2c1Nc1cccc([N+](=O)[O-])c1 [compound 225] | > 115 | – | – | – |
| 170 | CCOC(=O)c1c(SC)nc2ccnn2c1Nc1ccc([N+](=O)[O-])cc1 [compound 226] | > 115 | > 115 | – | – |
